Reference: PubChem BioAssay (NCI)
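Test compounds were applied to cells in 96-well plates for 48 hours at 5 doses. GI50 marks 50% less growth. The concentration for full growth arrest is given as TGI.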

What was measured:
Assay in all cases: inhibition of tumour cell growth, NCI panel, 48 h
T-47D breast = system: T-47D breast
MOLT-4 leukemia = system: MOLT-4 leukemia
HL-60(TB) leukemia = system: HL-60(TB) leukemia
MDA-MB-231 breast = system: MDA-MB-231 breast
SF-295 CNS = system: SF-295 CNS
786-0 renal = system: 786-0 renal
OVCAR-4 ovarian = system: OVCAR-4 ovarian
NCI-H23 lung = system: NCI-H23 lung
SN12C renal = system: SN12C renal
NCI-H226 lung = system: NCI-H226 lung
HOP-92 NSCLC = system: HOP-92 NSCLC
SK-MEL-2 melanoma = system: SK-MEL-2 melanoma
MCF7 breast = system: MCF7 breast
SK-MEL-28 melanoma = system: SK-MEL-28 melanoma
SK-OV-3 ovarian = system: SK-OV-3 ovarian
LOX IMVI melanoma = system: LOX IMVI melanoma
HCT-15 colon = system: HCT-15 colon
OVCAR-3 ovarian = system: OVCAR-3 ovarian
SF-268 CNS = system: SF-268 CNS
UACC-257 melanoma = system: UACC-257 melanoma
CAKI-1 renal = system: CAKI-1 renal
HCC-2998 colon = system: HCC-2998 colon
MALME-3M melanoma = system: MALME-3M melanoma
HT29 colon = system: HT29 colon
OVCAR-8 ovarian = system: OVCAR-8 ovarian
SK-MEL-5 melanoma = system: SK-MEL-5 melanoma
TK-10 renal = system: TK-10 renal

For `O=C1c2ccccc2-c2nnc(-c3ccc(Br)cc3)cc21`, the GI50 (T-47D breast) was 48.8 µM, the TGI (T-47D breast) was over 100 µM and the GI50 (MOLT-4 leukemia) was over 100 µM. The TGI (MOLT-4 leukemia) was over 100 µM, the GI50 (HL-60(TB) leukemia) was over 100 µM and the TGI (HL-60(TB) leukemia) was over 100 µM. The GI50 (MDA-MB-231 breast) was over 100 µM, the TGI (MDA-MB-231 breast) was over 100 µM and the GI50 (SF-295 CNS) was over 100 µM. For the same molecule, the TGI (SF-295 CNS) was over 100 µM, the GI50 (786-0 renal) was over 100 µM and the TGI (786-0 renal) was over 100 µM. For the same molecule, the GI50 (OVCAR-4 ovarian) was over 100 µM, the TGI (OVCAR-4 ovarian) was over 100 µM and the GI50 (NCI-H23 lung) was over 100 µM. It also gave a TGI (NCI-H23 lung) of over 100 µM, a GI50 (SN12C renal) of over 100 µM and a TGI (SN12C renal) of over 100 µM. It also gave a GI50 (NCI-H226 lung) of over 100 µM, a TGI (NCI-H226 lung) of over 100 µM and a GI50 (HOP-92 NSCLC) of over 100 µM. For the same molecule, the TGI (HOP-92 NSCLC) was over 100 µM, the GI50 (SK-MEL-2 melanoma) was over 100 µM and the TGI (SK-MEL-2 melanoma) was over 100 µM. The GI50 (MCF7 breast) was over 100 µM, the TGI (MCF7 breast) was over 100 µM and the GI50 (SK-MEL-28 melanoma) was over 100 µM. For the same molecule, the TGI (SK-MEL-28 melanoma) was over 100 µM, the GI50 (SK-OV-3 ovarian) was over 100 µM and the TGI (SK-OV-3 ovarian) was over 100 µM. It also gave a GI50 (LOX IMVI melanoma) of over 100 µM, a TGI (LOX IMVI melanoma) of over 100 µM and a GI50 (HCT-15 colon) of over 100 µM. It also gave a TGI (HCT-15 colon) of over 100 µM, a GI50 (OVCAR-3 ovarian) of over 100 µM and a TGI (OVCAR-3 ovarian) of over 100 µM. For the same molecule, the GI50 (SF-268 CNS) was over 100 µM, the TGI (SF-268 CNS) was over 100 µM and the GI50 (UACC-257 melanoma) was over 100 µM. The TGI (UACC-257 melanoma) was over 100 µM, the GI50 (CAKI-1 renal) was over 100 µM and the TGI (CAKI-1 renal) was over 100 µM. For the same molecule, the GI50 (HCC-2998 colon) was over 100 µM, the TGI (HCC-2998 colon) was over 100 µM and the GI50 (MALME-3M melanoma) was over 100 µM. It also gave a TGI (MALME-3M melanoma) of over 100 µM, a GI50 (HT29 colon) of over 100 µM and a TGI (HT29 colon) of over 100 µM. For the same molecule, the GI50 (OVCAR-8 ovarian) was over 100 µM, the TGI (OVCAR-8 ovarian) was over 100 µM and the GI50 (SK-MEL-5 melanoma) was over 100 µM. For the same molecule, the TGI (SK-MEL-5 melanoma) was over 100 µM, the GI50 (TK-10 renal) was over 100 µM and the TGI (TK-10 renal) was over 100 µM.
